The source of these data is US20070015733A1, “Aryl Phosphate Derivatives of d4T having Activity Against Resistant HIV Strains” (Parker Hughes Institute, priority 1998, published 2007).

Where two headings read alike, the source gives them in different places. Some results are limits rather than exact numbers.

Data set [1] is described as follows: Pharmacokinetics after intravenous or oral administration. The conditions noted are these: for elimination half-life (t1/2) of the administered substance: intravenous administration. Type of data set: in vivo, mice.
Data set [2] has as its system NRTI-resistant recombinant HIV-1 isolates. Conditions: cited from earlier work.
The conditions of data set [3]: twice daily hard gelatin capsules 25-100 mg/kg; cumulative dose levels as high as […]; cited from earlier work.
The conditions of data set [4]: cited from earlier work.
Data set [5] in a line: Stability in plasma, whole blood, gastric fluid and intestinal fluid. It is filed as in vitro ADME. How it is done:
Ala-d4T-MP is stable both in plasma and in whole blood. […] This hypothesis is consistent with the formation of a significant amount of d4T after incubation of d4T-5′-[p-bromophenyl methoxyalaninyl phosphate] with a liver homogenate.
Orally administered d4T-5′-[p-bromophenyl methoxyalaninyl phosphate] also yielded Ala-d4T-MP and d4T as the major metabolites. […] This metabolite can be absorbed in the intestine and then further metabolized to yield d4T in the blood. The tmax and t1/2 values for d4T in mice were longer when derived from orally administered d4T-5′-[p-bromophenyl methoxyalaninyl phosphate] (42.4 minutes and 99.0 minutes, respectively) than from orally administered d4T (5 minutes and 18 minutes, respectively). The tmax value is higher but the t1/2 value is lower for orally administered d4T-5′-[p-bromophenyl methoxyalaninyl phosphate] compared to intravenously administered d4T-5′-[p-bromophenyl methoxyalaninyl phosphate]. […] However, the bioavailability of d4T metabolized from d4T-5′-[p-bromophenyl methoxyalaninyl phosphate] (48%) was lower than that of orally administered d4T (98%).

The next data set concerns human T-cell line MT2. In words: Cytotoxicity in MT2 cells. Type of data set: cell-based. Conditions: even at a 100 μM concentration. An excerpt:
Dozens of mutant strains have been characterized as resistant to NNRTI compounds, including L1001, K103N, V106A, E138K, Y181C and Y188H/L. In particular, the Y181 C and K103N mutants may be the most difficult to treat, because they are resistant to most of the NNRTIs compounds that have been examined. […] These clinical HIV-1 isolates also harbor additional RT gene mutations conferring NRTI-resistance and display a zidovudine-resistant phenotype (see Table 11 and Table 12).

Data set [6] deals with zidovudine-resistant primary clinical HIV-1 isolates in CD4-expressing HeLa cell line HT4-6C. In words: Syncytial focus (plaque) formation assay in HT4-6C cells. Type of data set: cell-based. Conditions: Human immunodeficiency virus 1, HeLa. As to the method:
Plaque formation assays. The syncytial focus (plaque) assay permits quantitation of infectivity of HIV. In brief, a CD4-expressing HeLa cell line (HT4-6C) (AIDS Research and Reference Reagent Program, NIAID) is cultured in 24-well tissue culture plates at 2.5-3.0×10^4 cells/ml in the presence of virus inoculum (100 plaque forming units) and several concentrations of the antiviral agent. The virus was added first for a 2 hr incubation time prior to addition of the antiviral agents. […] Percent inhibition of plaque formation was calculated by comparing the plaque numbers from the test substance-treated infected cells with the plaque numbers from untreated infected cells (i.e., virus controls).

In data set [7] the test system is NRTI-resistant recombinant HIV-1 isolates. In words: RT activity assay, multi-NRTI-resistant recombinant HIV-1 clones. It is filed as cell-based.
For data set [8], the system named is AZT-sensitive HIV-1 (strain: HTLVIIIB). Briefly: Inhibition of HIV-1 HTLVIIIB in PBMC, RT activity assays (Example 14). Type of data set: cell-based. The conditions noted are these: Human immunodeficiency virus 1, PBMC.
Protocol: The compounds, as well as AZT, were tested for their ability to inhibit HIV replication in peripheral blood mononuclear cells using previously described procedures (Zarling et. al., 1990 Nature 347:92; Erice et. al., 1993 Antimicrob. Agents Chemother. 37:835; Uckun et. al., 1998 Antimicrob. Agents Chemother. 42:383). […] Percent viral inhibition was calculated by comparing the RT activity values from the test substance-treated infected cells with RT values from untreated infected cells (i.e., virus controls).
[9] abbreviates: read-out: IC50, μM(Plaque Assay), Mean ± SE, mean over 9 zidovudine-resistant isolates.
Setting [10] is: read-out: IC50, μM(Plaque Assay), isolate G190-6 (M41L, D67N, K70R, T215Y, K219Q).
Setting [11] is: read-out: IC50, μM(Plaque Assay), isolate G691-2 (mutations N.D.).
The mark [12] stands for this setting: read-out: IC50, μM(Plaque Assay), isolate G704-2 (M41L, D67N, K70R, L210W, T215Y).
Where [13] appears, read: read-out: IC50, μM(Plaque Assay), isolate G780-1 (M41L, D67N, K70R, T215F, K219Q).
Setting [14] is: read-out: IC50, μM(Plaque Assay), isolate G890-1 (K20R, M41L, D67N, T69N, K70R, L210W, T215Y).
[15] abbreviates: read-out: IC50, μM(Plaque Assay), isolate H112-2 (no RT mutation, ZDV-sensitive control).
[16] abbreviates: read-out: IC50, μM(Plaque Assay), isolate J179-1 (M41L, D67N, L210W, T215Y).
The mark [17] stands for this setting: read-out: IC50, μM(Plaque Assay), isolate M709-1 (L1210W, T215Y).
[18] abbreviates: read-out: IC50, μM(Plaque Assay), isolate Q252-2 (M41L, L210W, T215Y).
Setting [19] is: read-out: IC50, μM(Plaque Assay), isolate U317-8 (M41L, L210W, T215Y).
The mark [20] stands for this setting: Human immunodeficiency virus 1, read-out: IC50 (nM), RT, recombinant clone 1617-1.
Where [21] appears, read: Human immunodeficiency virus 1, read-out: IC50 (nM), RT, recombinant clone 4755-5.
The mark [22] stands for this setting: Human immunodeficiency virus 1, read-out: IC50 (nM), RT, recombinant clone 7295-1.
[23] abbreviates: Human immunodeficiency virus 1, read-out: IC50 (nM), RT, recombinant clone 7324-1.
[24] abbreviates: Human immunodeficiency virus 1, read-out: IC50 (nM), RT, recombinant clone 52534-2.
The mark [25] stands for this setting: Human immunodeficiency virus 1, read-out: IC50 (nM), RT, recombinant clone 56252-1.
Where [26] appears, read: Human immunodeficiency virus 1, read-out: mean IC50, RT, mean over 6 multi-NRTI-resistant clones.
Where [27] appears, read: multi-NRTI-resistant clones, IC50 RT.

Consider `Cc1cn([C@H]2C=C[C@@H](CO)O2)c(=O)[nH]c1=O` [d4T, 2′,3′-didehydro-2′,3′-dideoxythymidine], for which the “elimination half-life (t1/2) of the administered substance” value in data set [1] turned out to be 30.3 min. In addition, the Fold decreased susceptibility in [2] (recombinant clone 1617-1) is on record as 11 fold; in data set [2] (recombinant clone 4755-5) it was 3.9 fold; in data set [2] (recombinant clone 7295-1) it was 1.9 fold; in [2] (recombinant clone 7324-1) it was 2.6 fold; in data set [2] (recombinant clone 52534-2) it was 9 fold; in data set [2] (recombinant clone 56252-1), 20 fold.

Consider `COC(=O)C(C)NP(=O)(OC[C@@H]1C=C[C@H](n2cc(C)c(=O)[nH]c2=O)O1)Oc1ccc(Br)cc1` (stereo partly shown) [Compound 1c, d4T-5′-[p-bromo-phenylmethoxyalaninyl phosphate]], for which the “tolerability of four-week treatment course” value in data set [3] was “very well tolerated”. Moreover, the “toxicity on daily administration” value in data set [4] (intraperitoneally or orally for up to 8 consecutive weeks, cumulative dose levels as high as 6.4 g/kg) is “not associated with any detectable toxicity”. In addition, the “acute or subacute toxicity” value in [4] (single intraperitoneal or oral bolus dose levels as high as 500 mg/kg) is “without any detectable acute or subacute toxicity”. The “stability in gastric fluid” value in data set [5] (gastric fluid) was “stable in gastric fluid”. Besides, the “stability in intestinal fluid” value in [5] (intestinal fluid, forms Ala-d4T-MP) is “decomposes readily in intestinal fluid”. In addition, the “stability in plasma and whole blood” value in [5] (plasma or whole blood) is on record as “readily metabolizes”. In [1] (after oral administration), the “parent compound in blood” value is “No parent d4T-5′-[p-bromophenyl methoxyalaninyl phosphate] was detectable”. Further, in data set [1], the “elimination half-life (t1/2) of the administered substance” value turned out to be 3.5 min. Besides, in the data set on human T-cell line MT2, the “cytotoxicity in MT2 cells” value is listed as “without any evidence of cytotoxicity”. Also, the IC50 in [6] (setting [9]) amounted to 0.0794 ± 0.0187 µM; in data set [6] (setting [10]) it was 0.1 µM; in data set [6] (setting [11]), 0.06 µM; in [6] (setting [12]), 0.08 µM; in data set [6] (setting [13]) it was 0.015 µM; in data set [6] (setting [14]) it was 0.04 µM. In addition, the IC50 in data set [6] (setting [15]) stood at 0.015 µM; in data set [6] (setting [16]), 0.18 µM; in data set [6] (setting [17]), 0.08 µM; in [6] (setting [18]) it was 0.11 µM; in [6] (setting [19]) it was 0.03 µM; in data set [6] (read-out: mean IC50 value (plaque assay), mean over 9 zidovudine-resistant isolates), 0.0794 ± 0.0187 µM. For the same molecule, the IC50 in [7] (setting [20]) was found to be 5.8 nM; in data set [7] (setting [21]), 0.6 nM; in data set [7] (setting [22]), 0.2 nM; in data set [7] (setting [23]), 0.8 nM; in data set [7] (setting [24]), 4.6 nM; in data set [7] (setting [25]), 6.3 nM. The IC50 in data set [7] (setting [26]) was 3.1 ± 1.2 nM. In addition, the “logs more potent than lamivudine” value in [7] (setting [27]) was > 3.4 logs. Moreover, in data set [7] (setting [27]), the “logs more potent than zidovudine(AZT)” value is > 1.4 logs.

As to `Cc1cn([C@H]2C[C@H](N=[N+]=[N-])[C@@H](CO)O2)c(=O)[nH]c1=O` [AZT, 3′-azido-3′-deoxythymidine], the IC50 was 7 nM in data set [8] (Table 15, preliminary, first human source of PBMC); 81.7 nM in data set [8] (Table 16, AZT values in nM per footnote); 4 ± 1 nM in data set [8] (Table 17, later analysis from a larger sample pool); 3.9 ± 1 µM in data set [6] (setting [9]); 10 µM in data set [6] (setting [10]); 7.8 µM in data set [6] (setting [11]). The IC50 was 5.7 µM in data set [6] (setting [12]); 1.8 µM in data set [6] (setting [13]); 3.6 µM in data set [6] (setting [14]); 0.015 µM in [6] (setting [15]); 2.6 µM in [6] (setting [16]); 3 µM in [6] (setting [17]). The IC50 was 2.8 µM in data set [6] (setting [18]); 2 µM in data set [6] (setting [19]); 174 nM in [7] (setting [20]); 15.4 nM in data set [7] (setting [21]); 0.8 nM in data set [7] (setting [22]); 108 nM in data set [7] (setting [23]). In addition, the IC50 in data set [7] (setting [24]) turned out to be 54.8 nM; in [7] (setting [25]), 187 nM; in data set [7] (setting [26]), 90 ± 32.4 nM. Further, the Fold decreased susceptibility in data set [2] (recombinant clone 1617-1) is on record as 261 fold; in [2] (recombinant clone 4755-5), 61 fold; in [2] (recombinant clone 7295-1) it was 9.9 fold; in data set [2] (recombinant clone 7324-1), 923 fold; in data set [2] (recombinant clone 52534-2) it was 719 fold; in data set [2] (recombinant clone 56252-1) it was >1000 fold.

As usually defined, the IC50 is the concentration that inhibits the measured activity by half.
